From ChEMBL document CHEMBL5465560, “Selectivity Literature for EUbOPEN Chemogenomic Library” (2024) come the findings set out here.

For assay [1], the target named is Mitogen-activated protein kinase kinase kinase 10 (Homo sapiens) (UniProt Q02779). Briefly: Selectivity interaction (LanthaScreen Eu Kinase Binding Assay) EUB0001632a MAP3K10. Particulars: at 10 µM.
Assay [2] has as its target T1, Rhodopsin kinase GRK7 (Homo sapiens) (UniProt Q8WTQ7).
T1 sequence (whole entry): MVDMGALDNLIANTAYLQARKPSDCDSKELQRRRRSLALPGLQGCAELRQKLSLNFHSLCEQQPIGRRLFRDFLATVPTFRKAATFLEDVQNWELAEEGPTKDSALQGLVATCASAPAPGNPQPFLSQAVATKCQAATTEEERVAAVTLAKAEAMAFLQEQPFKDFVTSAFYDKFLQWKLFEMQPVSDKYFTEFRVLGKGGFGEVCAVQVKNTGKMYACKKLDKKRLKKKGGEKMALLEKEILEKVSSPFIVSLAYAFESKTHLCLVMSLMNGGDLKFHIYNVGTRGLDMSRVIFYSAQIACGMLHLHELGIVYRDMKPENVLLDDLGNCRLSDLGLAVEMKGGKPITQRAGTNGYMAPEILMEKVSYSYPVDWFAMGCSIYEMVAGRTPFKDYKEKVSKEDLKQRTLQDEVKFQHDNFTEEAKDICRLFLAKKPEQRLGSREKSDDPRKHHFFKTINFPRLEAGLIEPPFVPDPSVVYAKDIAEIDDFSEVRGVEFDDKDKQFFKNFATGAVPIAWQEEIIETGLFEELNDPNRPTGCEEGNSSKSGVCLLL
The assay can be described thus: Selectivity interaction (Kinase panel (Z-LYTE Assay)) EUB0001632a GRK7. The conditions noted are these: at 10 µM.

The target of assay [3] is Casein kinase I isoform delta (Homo sapiens, UniProt P48730). Briefly: Selectivity interaction (KinomeScan (DiscoverX)) EUB0000595a CSNK1D. Particulars: at 10 µM.
Chain of Casein kinase I isoform delta (P48730 whole entry, looked up, canonical isoform): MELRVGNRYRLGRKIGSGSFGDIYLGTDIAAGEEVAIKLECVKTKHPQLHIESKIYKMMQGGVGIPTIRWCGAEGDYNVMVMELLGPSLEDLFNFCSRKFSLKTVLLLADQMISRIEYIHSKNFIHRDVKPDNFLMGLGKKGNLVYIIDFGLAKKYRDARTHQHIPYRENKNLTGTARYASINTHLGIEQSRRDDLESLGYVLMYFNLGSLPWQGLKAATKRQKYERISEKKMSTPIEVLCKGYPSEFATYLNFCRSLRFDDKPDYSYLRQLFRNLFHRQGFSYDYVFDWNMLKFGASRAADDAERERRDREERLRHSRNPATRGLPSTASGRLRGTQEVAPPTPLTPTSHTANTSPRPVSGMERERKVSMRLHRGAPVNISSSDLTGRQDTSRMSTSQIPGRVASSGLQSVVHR
In assay [4] the target is T2, Cyclin-dependent kinase 11A (Homo sapiens) (UniProt Q9UQ88).
T2 sequence (whole entry): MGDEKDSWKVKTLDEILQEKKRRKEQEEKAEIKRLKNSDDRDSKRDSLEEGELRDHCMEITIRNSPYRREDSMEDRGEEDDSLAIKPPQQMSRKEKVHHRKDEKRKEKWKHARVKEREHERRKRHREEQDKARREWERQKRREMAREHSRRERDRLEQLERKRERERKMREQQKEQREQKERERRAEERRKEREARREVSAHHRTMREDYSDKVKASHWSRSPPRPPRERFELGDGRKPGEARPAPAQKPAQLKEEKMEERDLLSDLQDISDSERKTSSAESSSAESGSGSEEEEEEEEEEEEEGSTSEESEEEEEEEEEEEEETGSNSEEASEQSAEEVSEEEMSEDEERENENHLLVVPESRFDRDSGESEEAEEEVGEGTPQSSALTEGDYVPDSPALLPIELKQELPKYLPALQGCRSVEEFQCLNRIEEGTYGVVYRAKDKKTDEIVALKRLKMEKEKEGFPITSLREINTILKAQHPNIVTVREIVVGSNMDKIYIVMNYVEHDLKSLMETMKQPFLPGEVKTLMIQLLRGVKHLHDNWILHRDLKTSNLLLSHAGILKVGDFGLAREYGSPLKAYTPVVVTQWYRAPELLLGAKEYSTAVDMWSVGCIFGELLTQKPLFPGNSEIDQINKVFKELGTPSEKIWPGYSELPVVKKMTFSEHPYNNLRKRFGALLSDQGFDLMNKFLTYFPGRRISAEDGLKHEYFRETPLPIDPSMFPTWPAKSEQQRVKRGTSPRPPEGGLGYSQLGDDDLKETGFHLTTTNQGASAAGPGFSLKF
The assay can be described thus: Selectivity interaction (KinomeScan (DiscoverX)) EUB0001619a CDK11A. Particulars: at 1 µM.

Assay [5] has as its target T3, Serine/threonine-protein kinase 36 (Homo sapiens) (UniProt Q9NRP7).
T3 sequence (whole entry): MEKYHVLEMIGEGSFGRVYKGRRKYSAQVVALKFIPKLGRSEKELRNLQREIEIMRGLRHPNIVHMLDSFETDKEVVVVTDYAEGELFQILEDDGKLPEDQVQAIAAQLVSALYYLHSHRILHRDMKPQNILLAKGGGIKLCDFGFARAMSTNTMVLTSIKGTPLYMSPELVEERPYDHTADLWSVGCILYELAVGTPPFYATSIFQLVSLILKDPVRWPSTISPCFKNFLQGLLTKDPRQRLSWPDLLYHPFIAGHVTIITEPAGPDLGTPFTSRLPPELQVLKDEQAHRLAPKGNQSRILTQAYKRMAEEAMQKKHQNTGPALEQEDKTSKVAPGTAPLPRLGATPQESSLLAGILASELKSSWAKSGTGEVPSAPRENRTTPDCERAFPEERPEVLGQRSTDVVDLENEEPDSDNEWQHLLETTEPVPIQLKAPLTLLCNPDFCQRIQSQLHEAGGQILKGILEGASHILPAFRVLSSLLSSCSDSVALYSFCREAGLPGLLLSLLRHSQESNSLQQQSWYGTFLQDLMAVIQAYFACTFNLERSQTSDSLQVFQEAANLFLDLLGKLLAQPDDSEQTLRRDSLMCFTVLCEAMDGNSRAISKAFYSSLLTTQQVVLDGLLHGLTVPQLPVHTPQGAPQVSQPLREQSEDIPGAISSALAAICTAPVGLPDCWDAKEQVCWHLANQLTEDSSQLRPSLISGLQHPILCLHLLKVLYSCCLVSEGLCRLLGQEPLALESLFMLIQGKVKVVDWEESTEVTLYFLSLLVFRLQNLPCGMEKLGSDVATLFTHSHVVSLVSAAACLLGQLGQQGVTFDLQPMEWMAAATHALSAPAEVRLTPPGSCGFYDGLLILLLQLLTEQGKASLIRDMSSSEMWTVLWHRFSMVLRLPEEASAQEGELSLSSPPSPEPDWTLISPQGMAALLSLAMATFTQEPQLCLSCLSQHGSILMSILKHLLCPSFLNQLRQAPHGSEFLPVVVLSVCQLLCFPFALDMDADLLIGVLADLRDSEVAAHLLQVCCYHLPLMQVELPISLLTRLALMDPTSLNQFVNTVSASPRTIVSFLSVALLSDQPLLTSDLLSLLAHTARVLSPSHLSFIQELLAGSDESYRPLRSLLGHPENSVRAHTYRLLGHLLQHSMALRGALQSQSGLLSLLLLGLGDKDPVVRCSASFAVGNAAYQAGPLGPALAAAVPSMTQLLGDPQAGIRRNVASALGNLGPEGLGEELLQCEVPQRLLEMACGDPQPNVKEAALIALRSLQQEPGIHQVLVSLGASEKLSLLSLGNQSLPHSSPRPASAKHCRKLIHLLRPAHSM
The assay can be described thus: Selectivity interaction (KinomeScan (DiscoverX)) EUB0000607a STK36. The conditions noted are these: at 10 µM.

Assay [6] has as its system Mast/stem cell growth factor receptor Kit (Homo sapiens), P10721 [V559D,T670I]. Particulars: at 10 µM.

Chain of Mast/stem cell growth factor receptor Kit (Homo sapiens), P10721 [V559D,T670I] (P10721 whole entry V559D/T670I): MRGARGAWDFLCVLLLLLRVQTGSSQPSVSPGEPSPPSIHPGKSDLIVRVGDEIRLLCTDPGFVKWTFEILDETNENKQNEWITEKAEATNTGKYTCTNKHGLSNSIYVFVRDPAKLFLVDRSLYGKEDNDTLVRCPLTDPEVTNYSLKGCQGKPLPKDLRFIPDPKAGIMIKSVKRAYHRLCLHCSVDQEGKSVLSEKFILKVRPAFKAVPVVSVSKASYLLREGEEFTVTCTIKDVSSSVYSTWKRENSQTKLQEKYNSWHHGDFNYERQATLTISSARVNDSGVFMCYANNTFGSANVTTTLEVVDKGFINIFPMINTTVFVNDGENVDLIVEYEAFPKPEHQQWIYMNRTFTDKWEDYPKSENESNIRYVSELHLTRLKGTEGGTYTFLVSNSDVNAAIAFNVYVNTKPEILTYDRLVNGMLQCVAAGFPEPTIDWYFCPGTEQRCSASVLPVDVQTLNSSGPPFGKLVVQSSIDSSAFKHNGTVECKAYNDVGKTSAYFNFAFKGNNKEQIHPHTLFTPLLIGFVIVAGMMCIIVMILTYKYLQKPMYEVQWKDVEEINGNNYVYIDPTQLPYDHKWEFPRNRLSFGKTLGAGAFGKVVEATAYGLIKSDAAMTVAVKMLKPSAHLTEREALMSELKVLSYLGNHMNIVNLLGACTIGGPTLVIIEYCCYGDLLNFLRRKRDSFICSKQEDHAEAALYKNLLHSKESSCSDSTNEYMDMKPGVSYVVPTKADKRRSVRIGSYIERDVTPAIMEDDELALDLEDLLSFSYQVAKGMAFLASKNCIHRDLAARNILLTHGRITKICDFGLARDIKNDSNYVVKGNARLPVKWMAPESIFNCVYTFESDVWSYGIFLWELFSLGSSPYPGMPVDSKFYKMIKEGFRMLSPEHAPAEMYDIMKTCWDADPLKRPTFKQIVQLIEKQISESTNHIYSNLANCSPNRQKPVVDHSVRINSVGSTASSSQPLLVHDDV
Chain of Mitogen-activated protein kinase kinase kinase 10 (Homo sapiens) (Q02779 whole entry, looked up): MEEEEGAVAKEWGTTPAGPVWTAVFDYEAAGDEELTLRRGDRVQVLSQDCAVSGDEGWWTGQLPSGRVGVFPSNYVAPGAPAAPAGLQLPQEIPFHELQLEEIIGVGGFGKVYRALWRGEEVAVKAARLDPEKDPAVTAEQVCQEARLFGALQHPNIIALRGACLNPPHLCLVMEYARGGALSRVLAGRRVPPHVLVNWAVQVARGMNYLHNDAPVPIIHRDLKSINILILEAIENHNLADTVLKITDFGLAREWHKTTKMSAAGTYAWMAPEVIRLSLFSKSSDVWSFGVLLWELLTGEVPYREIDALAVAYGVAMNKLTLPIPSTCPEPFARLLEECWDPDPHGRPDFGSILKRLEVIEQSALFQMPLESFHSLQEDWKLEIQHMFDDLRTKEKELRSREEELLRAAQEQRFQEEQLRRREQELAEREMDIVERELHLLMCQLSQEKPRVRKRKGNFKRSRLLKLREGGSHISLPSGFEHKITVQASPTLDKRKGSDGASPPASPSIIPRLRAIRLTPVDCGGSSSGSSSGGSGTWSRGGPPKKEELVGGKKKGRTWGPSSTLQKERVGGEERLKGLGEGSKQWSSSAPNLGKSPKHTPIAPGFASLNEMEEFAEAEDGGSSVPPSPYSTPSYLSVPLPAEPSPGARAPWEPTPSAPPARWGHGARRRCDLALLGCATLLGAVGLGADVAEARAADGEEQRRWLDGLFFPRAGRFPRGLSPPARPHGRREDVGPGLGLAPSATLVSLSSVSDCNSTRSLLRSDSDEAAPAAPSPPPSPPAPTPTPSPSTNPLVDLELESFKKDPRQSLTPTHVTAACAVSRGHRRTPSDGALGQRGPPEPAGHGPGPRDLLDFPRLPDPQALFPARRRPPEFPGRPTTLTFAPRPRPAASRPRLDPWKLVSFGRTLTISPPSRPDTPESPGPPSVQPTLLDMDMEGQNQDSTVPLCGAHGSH

Consider `Cn1cc(-n2cnc3c(NCc4nc5cc(Cl)c(Cl)cc5[nH]4)nc(N4CCOCC4)nc32)cn1`, for which the % of inhibition in assay [1] was -1.64%. Besides, the % of control in assay [2] was -0.279%.

For the molecule `COCC(=O)NC/C=C/c1ccc2ncnc(Nc3ccc(Oc4ccc(C)nc4)c(C)c3)c2c1` [CP-724714], the % of control in assay [3] worked out at 90%.

With `N#Cc1cccc(-c2c[nH]c3ncnc(N4CCOCC4)c23)c1`, in assay [4], the % of control is 100%.

Consider `CNC(=O)Nc1ccc(-c2nc(N3CC4CCC(C3)O4)c3cnn(C4CCC5(CC4)OCCO5)c3n2)cc1`, for which the % of control in assay [5] amounted to 96%.

For the molecule `Cc1cc([C@@H](C)Nc2ccccc2C(=O)O)c2nc(N3CCOCC3)cc(=O)n2c1` [AZD-6482], the % of control in assay [6] was 91%.
